# Assay results reported in patent publication US10894817B2, “Fatty acid modified urocortin-2 analogs for the treatment of diabetes and chronic kidney disease” (priority 2016, dated 2021).
# “And” between values parts separate entries of the source, which are not always exact repeats. Identical values can stand only once. Starred links: 1 amine or outer side, 2 acyl side, 3 side chain; linkers in the order of their positions; H or OH if unused. Non-standard residues stand in square brackets, D forms with d. Residues, ends and D or L forms follow the SMILES beside them. Groups on a side chain read outwards from the residue. *: point of attachment. C20 diacid = O=C(O)CCCCCCCCCCCCCCCCCCC(=O)*; γGlu = O=C(O)[C@H](CCC(=O)[*:2])N[*:1]; NMeI = CC[C@H](C)[C@H](NC)C(=O)O; AEEA = NCCOCCOCC(=O)O
# Legend:
# human CRHR1 = target: T1, human CRHR1 (Homo sapiens, UniProt P34998); assay: human CRHR1 cell-based cAMP assay (Y79 cells); conditions: Y79 cells with endogenous human CRHR1, mean ± SEM of runs, read-out: hCRHR1 Average EC50
# T1 construct: which expresses endogenous human CRHR1; host or cells: Y79 human retinoblastoma cells
# T1 sequence (P34998 24-415): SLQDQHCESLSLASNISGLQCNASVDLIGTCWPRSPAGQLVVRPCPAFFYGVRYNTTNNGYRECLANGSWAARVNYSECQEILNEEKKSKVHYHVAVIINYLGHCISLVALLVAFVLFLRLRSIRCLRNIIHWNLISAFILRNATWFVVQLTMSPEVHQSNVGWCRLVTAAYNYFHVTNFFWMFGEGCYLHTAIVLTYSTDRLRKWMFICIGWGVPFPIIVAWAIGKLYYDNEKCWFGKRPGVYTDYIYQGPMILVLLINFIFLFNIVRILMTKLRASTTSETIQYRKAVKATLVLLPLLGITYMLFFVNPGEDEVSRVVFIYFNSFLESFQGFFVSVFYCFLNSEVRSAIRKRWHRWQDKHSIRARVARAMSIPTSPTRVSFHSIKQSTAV
# Experimental: CRHR agonistic activity is measured in a cell-based cAMP assay. Serial dilutions of the test peptides are made in assay buffer containing Hank's Balanced Salt Solution (HBSS, without phenol red) supplemented with 20 mM HEPES and 0.05% lactalbumin enzymatic hydrolysate (LAH) (“assay buffer”). The highest concentration that is used starts from 1 μM in the human CRHR2b, whereas 100 μM starting concentration is used in the human CRHR1 assay. A one to three dilution of the test peptides is used in both assays.
# The human Retinoblastoma cell line Y79 (ATCC #HTB-18), which expresses endogenous human CRHR1, is used in the human CRHR1 assay. The cells are grown in RPMI 1640 (Hyclone, #SH30255) containing 20% fetal bovine serum and 10 mM HEPES, in suspension culture. Cells are centrifuged to remove the culture media and washed once in HBSS supplemented with 20 mM HEPES. The cells are resuspended in the assay buffer and 20,000 cells are used per treatment in the human CRHR1 assay.
# The cells are dispensed into Costar 96-well black polystyrene half area EIA/RIA plates (Corning Incorporated, Corning, N.Y.) followed by the addition of the diluted peptides, each at a volume of 20 μL. The agonist induced cAMP levels are detected using a HTRF cAMP Dynamic 2 kit (CisBio, Bedford, Mass.). After incubation at 37° C. for 30 min, the assay is stopped by cell lysis via the addition of 20 μL of d2-labeled cAMP and followed by 20 μL of cryptate-labeled anti-cAMP antibody, as described by the manufacturer. Cellular cAMP (as a result of agonist stimulation) competes with the d2-labeled cAMP for binding to the antibody. HTRF detection is performed on an Envision plate reader (Perkin Elmer Life and Analytical Sciences, Waltham, Mass.) by measuring ratiometric emission at 620 and 665 nm after excitation at 320 nm.
# The data are converted to picomoles of cAMP using a standard curve obtained from the same assay performed with varying concentrations of unlabeled cAMP. Percent of the maximum activation of the cells is calculated using converted picomole cAMP data by comparing to the amount of cAMP produced by 1 μM human UCN2 for the human CRHR2b or 1 μM human UCN1 for the human CRHR1 assay. The data are analyzed using a Curve Fitting Tool to calculate ED50. Numeric values shown below in Table 1 represent the mean of multiple runs (number of runs shown in parentheses) following the mean value±SEM.
# [1] = Pharmacokinetics, single subcutaneous dose, rats
# [2] = Pharmacokinetics, single subcutaneous dose, mice; conditions: male, CD-1, mouse, plasma, sc, 350 nmol/kg
# Experimental: (§1) Plasma concentrations of compounds were determined by LC/MS methods. Each method measured the intact compound; peptide plus linked time extension. For each assay, the compound and an analog, used as an internal standard (IS), were extracted from 100% mouse, rat or monkey plasma (25 μl) using acetonitrile. Two distinct layers were formed upon centrifugation with the compound and the IS located in the supernatant layer. An aliquot of the supernatant (80 μl) was transferred to a Thermo Protein Precipitation Plate with water (150 μl) and formic acid (25 μl) followed by mixing. A final 31% acetonitrile in 10% formic acid sample (10 μl) was loaded onto a Supelco Analytical Discovery BIO Wide Pore C5-3 column (5 cm×1 mm, 3 μm). The column effluent was directed into a Thermo Q-Exactive mass spectrometer for detection and quantitation.
# Male CD-1 mice were administered a single subcutaneous dose (350, 386 or 388 nmol/kg) of a compound described herein in 20 mM Tris-HCl Tris Buffer (pH 7 or 8) at a volume of 0.05 or 0.06 mL/animal. Blood was collected at 6, 12, 24, 48, 72, 96, 120 and 168 hours postdose for pharmacokinetic characterization (101).
# [3] = Pharmacokinetics, single subcutaneous dose, monkeys
# Experimental: as §1
# Male Cynomolgus monkeys were administered a single subcutaneous dose or intravenous dose (96.4 nmol/kg) of a compound described herein in 20 mM Tris-HCl Buffer (pH 7) at a volume of 1 mL/kg. Blood was collected from each animal at 2, 6, 24, 48, 72, 96, 168, 240, 336, 408, and 504 hours postdose for pharmacokinetic characterization.
# Male Cynomolgus monkeys were also administered a single subcutaneous dose (50 nmol/kg) of a compound described herein in 20 mM Tris-HCl Buffer (pH 8) at a volume of 0.26 mL/kg. Blood was collected from each animal at 3, 6, 12, 24, 48, 72, 96, 120, 168, 192, 240, 336, 408, and 504 hours postdose for pharmacokinetic characterization.
# [4] = male, Sprague Dawley, rat, plasma, sc, 50 nmol/kg
# [5] = male, Sprague Dawley, rat, plasma, sc, 150 nmol/kg
# [6] = male Cynomolgus monkeys, single 50 nmol/kg s.c., individual animal
# [7] = male, cynomolgus monkey, plasma, sc, 50 nmol/kg
compound,measurement,setting,value
CC[C@H](C)[C@H](NC)C(=O)N[C@H](C(=O)N[C@@H](CC(C)C)C(=O)N[C@@H](CO)C(=O)N[C@@H](CC(C)C)C(=O)N[C@@H](CC(=O)O)C(=O)N[C@H](C(=O)N1CCC[C@H]1C(=O)N[C@H](C(=O)NCC(=O)N[C@@H](CC(C)C)C(=O)N[C@@H](CC(C)C)C(=O)N[C@@H](CCC(N)=O)C(=O)N[C@H](C(=O)N[C@@H](CC(C)C)C(=O)N[C@@H](CC(C)C)C(=O)N[C@@H](CCC(=O)O)C(=O)N[C@@H](CCC(N)=O)C(=O)N[C@@H](CCC(=O)O)C(=O)N[C@@H](CCCCN)C(=O)N[C@@H](CCC(N)=O)C(=O)N[C@@H](CCC(=O)O)C(=O)N[C@@H](CCCCN)C(=O)N[C@@H](CCC(=O)O)C(=O)N[C@@H](CCCCN)C(=O)N[C@@H](CCC(N)=O)C(=O)N[C@@H](CCC(N)=O)C(=O)N[C@@H](C)C(=O)N[C@@H](CCCCNC(=O)COCCOCCNC(=O)COCCOCCNC(=O)CC[C@H](NC(=O)CC[C@H](NC(=O)CCCCCCCCCCCCCCCCCCC(=O)O)C(=O)O)C(=O)O)C(=O)N[C@H](C(=O)N[C@@H](CC(N)=O)C(=O)N[C@@H](C)C(=O)N[C@@H](CCC(N)=O)C(=O)N[C@H](C(=O)N[C@@H](CC(C)C)C(=O)N[C@@H](C)C(=O)N[C@@H](CCC(N)=O)C(=O)N[C@H](C(N)=O)C(C)C)[C@@H](C)CC)[C@@H](C)O)[C@@H](C)CC)[C@@H](C)CC)C(C)C)C(C)C [Example 4] (H-[NMeI]VLSLDVPIGLLQILLEQEKQEKEKQQAK([AEEA-AEEA-γGlu-γGlu-C20 diacid])TNAQILAQV-NH2),EC50,human CRHR1,> 100 µM
same,Cmax,"[1]; male Sprague Dawley rats, single 50 nmol/kg s.c., individual animal",126 nM and 150 nM and 127 nM
same,Cmax,"[1]; male Sprague Dawley rats, single 150 nmol/kg s.c., individual animal",356 nM and 527 nM and 482 nM
same,AUC(0-inf),[1]; [4],7.51 µM·h
same,Cmax,[1]; [4],134 nM
same,Tmax,"[1]; male, Sprague Dawley, rat, plasma, sc, 50 nmol/kg, male Sprague Dawley rats, single 50 nmol/kg s.c., Mean",24 h
same,Tmax,"[1]; male, Sprague Dawley, rat, plasma, sc, 50 nmol/kg, male Sprague Dawley rats, single 50 nmol/kg s.c., individual animal",24 h
same,AUC(0-inf),[1]; [5],25.1 µM·h
same,Cmax,[1]; [5],455 nM
same,Tmax,"[1]; male, Sprague Dawley, rat, plasma, sc, 150 nmol/kg, male Sprague Dawley rats, single 150 nmol/kg s.c., Mean",24 h
same,Tmax,"[1]; male, Sprague Dawley, rat, plasma, sc, 150 nmol/kg, male Sprague Dawley rats, single 150 nmol/kg s.c., individual animal",24 h
same,AUC(0-inf),[2],51.6 µM·h
same,Cmax,[2],1160 nM
same,Tmax,[2],24 h
same,AUC(0-inf),[3]; [6],51.829 µM·h and 46.654 µM·h
same,Cmax,[3]; [6],333 nM and 291 nM
same,AUC(0-inf),[3]; [7],49.2 µM·h
same,Cmax,[3]; [7],312 nM
same,Tmax,"[3]; male, cynomolgus monkey, plasma, sc, 50 nmol/kg, male Cynomolgus monkeys, single 50 nmol/kg s.c., Mean",36 h
same,Tmax,"[3]; male, cynomolgus monkey, plasma, sc, 50 nmol/kg, male Cynomolgus monkeys, single 50 nmol/kg s.c., individual animal",48 h
